Read-outs that look alike come from different tables or passages of the source.
Tested on: cancer cells
Experiment: MTS assay: inhibition of cell growth (formazan absorbance at 492 nm after 72 hours with test compound)
Assay type: cell-based
Details: inhibition class
Procedure, shortened: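 DMEM with 1% FBS; cells seeded at 3000/well and grown 18 h at 37 °C, then exposed to compound for 72 h and to MTS/PMS for 4 h. IC50 is the concentration giving a 50% absorbance drop; grades are % inhibition bands.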

[1] = Homo sapiens, DLD-1 cells, read-out: DLD-1, MTS 72 hours at 10 uM
[2] = Homo sapiens, KATO III cells, read-out: KATO III, MTS 72 hours at 10 uM
[3] = Homo sapiens, MDA-MB-231 cells, read-out: MDA-MB-231, MTS 72 hours at 10 uM
[4] = Homo sapiens, NCI-H1299 cells, read-out: NCI-H1299, MTS 72 hours at 10 uM
[5] = Homo sapiens, PC-3 cells, read-out: PC-3, MTS 72 hours at 10 uM
[6] = PACA-2 cells, read-out: PACA-2, MTS 72 hours at 10 uM

Row | Structure (SMILES) | inhibition at 10 µM [1] [%] | inhibition at 10 µM [2] [%] | inhibition at 10 µM [3] [%] | inhibition at 10 µM [4] [%] | inhibition at 10 µM [5] [%] | inhibition at 10 µM [6] [%]
1 | CC(C)CNC(=O)C1CN(Cc2ccccc2)c2nc(NCc3ccccc3)nc3[nH]nc1c23 (stereo not drawn) [Compound 236, 6-benzyl-4-(benzylamino)-N-(2-methylpropyl)-2,6,7,8-tetrahydro-1,2,3,5,6-pentaazaacenaphthylene-8-carboxamide] | < 50 | < 50 | < 50 | < 50 | < 50 | < 50
2 | O=C(C1CN(Cc2ccccc2)c2nc(NCc3ccccc3)nc3[nH]nc1c23)N1CCOCC1 (stereo not drawn) [Compound 237, N,6-dibenzyl-8-(morpholin-4-ylcarbonyl)-2,6,7,8-tetrahydro-1,2,3,5,6-pentaazaacenaphthylen-4-amine] | < 50 | < 50 | < 50 | < 50 | < 50 | < 50
3 | O=C(NCc1ccc(Cl)cc1)C1CN(Cc2ccccc2)c2nc(NCc3ccccc3)nc3[nH]nc1c23 (stereo not drawn) [Compound 238, 6-benzyl-4-(benzylamino)-N-(4-chlorobenzyl)-2,6,7,8-tetrahydro-1,2,3,5,6-pentaazaacenaphthylene-8-carboxamide] | > 79 | > 79 | > 79 | > 79 | > 79 | 50 to 79
4 | CN(C(=O)C1CN(Cc2ccccc2)c2nc(NCc3ccccc3)nc3[nH]nc1c23)C1CCCCC1 (stereo not drawn) [Compound 239, 6-benzyl-4-(benzylamino)-N-cyclohexyl-N-methyl-2,6,7,8-tetrahydro-1,2,3,5,6-pentaazaacenaphthylene-8-carboxamide] | < 50 | < 50 | < 50 | < 50 | < 50 | < 50
5 | O=C(NCC1CCCCC1)C1CN(Cc2ccccc2)c2nc(NCc3ccccc3)nc3[nH]nc1c23 (stereo not drawn) [Compound 240, 6-benzyl-4-(benzylamino)-N-(cyclohexylmethyl)-2,6,7,8-tetrahydro-1,2,3,5,6-pentaazaacenaphthylene-8-carboxamide] | > 79 | > 79 | < 50 | > 79 | > 79 | < 50
6 | O=C(NCCOc1ccccc1)C1CN(Cc2ccccc2)c2nc(NCc3ccccc3)nc3[nH]nc1c23 (stereo not drawn) [Compound 241, 6-benzyl-4-(benzylmino)-N-(2-phenoxyethyl)-2,6,7,8-tetrahydro-1,2,3,5,6-pentaazaacenaphthylene-8-carboxamide] | < 50 | < 50 | < 50 | < 50 | < 50 | < 50
7 | COc1ccc(CN2CCCc3n[nH]c4nc(N5CCOCC5)nc2c34)cc1 [Compound 242, 6-(4-methoxybenzyl)-4-morpholin-4-yl-6,7,8,9-tetrahydro-2H-1,2,3,5,6-pentaazabenzo[cd]azulene] | > 79 | < 50 | < 50 | < 50 | < 50 | 50 to 79
8 | COc1ccc(CN2CCCc3n[nH]c4nc(N5CCCC5)nc2c34)cc1 [Compound 244, 6-(4-methoxybenzyl)-4-pyrrolidin-1-yl-6,7,8,9-tetrahydro-2H-1,2,3,5,6-pentaazabenzo[cd]azulene] | < 50 | < 50 | < 50 | < 50 | < 50 | < 50
9 | COc1ccc(CN2CCCc3n[nH]c4nc(N5CCCCC5)nc2c34)cc1 [Compound 245, 6-(4-methoxybenzyl)-4-piperidin-1-yl-6,7,8,9-tetrahydro-2H-1,2,3,5,6-pentaazabenzo[cd]azulene] | < 50 | < 50 | < 50 | < 50 | < 50 | < 50
10 | COc1ccc(CN2CCCc3n[nH]c4nc(NC5CCN(C)CC5)nc2c34)cc1 [Compound 246, 6-(4-methoxybenzyl)-N-(1-methylpiperidin-4-yl)-6,7,8,9-tetrahydro-2H-1,2,3,5,6-pentaazabenzo[cd]azulen-4-amine] | < 50 | < 50 | < 50 | < 50 | < 50 | < 50
11 | COc1ccc(CN2CCCc3n[nH]c4nc(NCc5ccccc5)nc2c34)cc1 [Compound 247, N-benzyl-6-(4-methoxybenzyl)-6,7,8,9-tetrahydro-2H-1,2,3,5,6-pentaazabenzo[cd]azulen-4-amine] | < 50 | < 50 | < 50 | < 50 | < 50 | < 50
12 | COc1ccc(CN2CCCc3n[nH]c4nc(NCCc5ccc(F)cc5)nc2c34)cc1 [Compound 248, N-[2-(4-fluorophenyl)ethyl]-6-(4-methoxybenzyl)-6,7,8,9-tetrahydro-2H-1,2,3,5,6-pentaazabenzo[cd]azulen-4-amine] | > 79 | > 79 | > 79 | > 79 | > 79 | > 79
13 | COc1ccc(CN2CCCc3n[nH]c4nc(NCCN5CCOCC5)nc2c34)cc1 [Compound 249, 6-(4-methoxybenzyl)-N-(2-morpholin-4-ylethyl)-6,7,8,9-tetrahydro-2H-1,2,3,5,6-pentaazabenzo[cd]azulen-4-amine] | < 50 | < 50 | < 50 | < 50 | < 50 | < 50
14 | COc1ccc(CN2CCCc3n[nH]c4nc(NCc5ccccc5Cl)nc2c34)cc1 [Compound 250, N-(2-chlorobenzyl)-6-(4-methoxybenzyl)-6,7,8,9-tetrahydro-2H-1,2,3,5,6-pentaazabenzo[cd]azulen-4-amine] | 50 to 79 | > 79 | 50 to 79 | < 50 | > 79 | > 79
15 | COc1ccc(CN2CCCc3n[nH]c4nc(NCc5cccnc5)nc2c34)cc1 [Compound 251, 6-(4-methoxybenzyl)-N-(pyridin-3-ylmethyl)-6,7,8,9-tetrahydro-2H-1,2,3,5,6-pentaazabenzo[cd]azulen-4-amine] | > 79 | > 79 | > 79 | > 79 | > 79 | > 79
16 | COc1ccc(CN2CCCc3n[nH]c4nc(NCCc5c[nH]c6ccc(Cl)cc56)nc2c34)cc1 [Compound 252, N-[2-(5-chloro-1H-indol-3-yl)ethyl]-6-(4-methoxybenzyl)-6,7,8,9-tetrahydro-2H-1,2,3,5,6-pentaazabenzo[cd]azulen-4-amine] | 50 to 79 | < 50 | < 50 | < 50 | < 50 | < 50

From patent US8343983B2, “Substituted pyrazolo-pyrimidine compounds” (ArQule, Inc., priority 2009, dated 2013)
